For data set [1], the system named is Mus musculus. The data set is described as follows: Anti-inflammatory activity in ICR mouse assessed as inhibition of xylene induced ear edema at 0.10 mmol/kg pretreated orally for 30 mins followed by xylene challenge measured after 2 hrs relative to control. It counts as functional. Particulars: po.
The subject of data set [2] is HUVEC. The data set is described as follows: Protection against simulated ischemia/reperfusion injury induced mitochondrial oxidative damage in HUVEC assessed as decrease in mitochondrial reactive oxygen species level at 30 ug/ml pretreated for 12 hrs followed by compound washout and subsequent ischemia simulation for 2 hrs in presence of compound prior to 3 hrs reperfusion under drug free medium by MitoProbe based confocal microscopic analysis. The format is functional, cell-based. The following applies: Homo sapiens.

For data set [3], the system named is Rattus norvegicus. The data set can be described thus: Protection against ischemia/reperfusion induced Wistar rat intestinal injury model assessed as reduction in denudation of villous tips at 30 mg/kg administered as bolus dose pretreated for 5 mins followed by 12 hrs reperfusion and subsequent compound treatment at 10 mg/kg administered at 1 hr interval during reperfusion period by hematoxylin-eosin/trichrome/NADH-diaphorase staining based histopathological analysis. The format is functional, organism-based.

The subject of data set [4] is Rattus norvegicus. The data set can be described thus: Protection against ischemia/reperfusion induecd Wistar rat intestinal injury model assessed as decrease in mucosal neutrophil infiltration at 30 mg/kg administered as bolus dose pretreated for 5 mins followed by 12 hrs reperfusion and subsequent compound addition at 10 mg/kg administered at 1 hr interval during reperfusion period by hematoxylin-eosin/trichrome/NADH-diaphorase staining based histopathological analysis. It counts as functional, organism-based.

For data set [5], the system named is Rattus norvegicus. The data set can be described thus: Protection against ischemia/reperfusion-induced Wistar rat intestinal injury model assessed as effect on TNFalpha levels at 30 mg/kg administered as bolus dose pretreated for 5 mins followed by 12 hrs reperfusion and subsequent compound addition at 10 mg/kg administered at 1 hr interval during reperfusion period by ELISA (reference value: 62.9 +/- 8.7 pg/ml). It counts as functional.

The subject of data set [6] is Mus musculus. The data set can be described thus: Toxicity in mouse assessed as tail bleeding time at 0.50 mmol/kg, po administered 45 mins prior to tail transection measured every 30 secs (reference value: 119.8 +/- 8.4 sec). The following applies: in vivo. The format is organism-based.
Data set [7] concerns HUVEC. The data set can be described thus: Protection against simulated ischemia/reperfusion injury induced mitochondrial oxidative damage in HUVEC assessed as increase in tubular mitochondrial cells at 30 ug/ml pretreated for 12 hrs followed by compound washout and subsequent ischemia simulation for 2 hrs in presence of compound prior to 3 hrs reperfusion under drug free medium by MitoProbe based confocal microscopic analysis. The format is functional, cell-based. Particulars: Homo sapiens.

Data set [8] deals with Mus musculus. The data set is described as follows: Anti-inflammatory activity in ICR mouse assessed as inhibition of xylene induced ear edema at 0.02 mmol/kg, po pretreated for 30 mins followed by xylene challenge measured after 2 hrs. The format is functional, organism-based.
Data set [9] has as its system Rattus norvegicus. The data set can be described thus: Protection against ischemia/reperfusion-induced Wistar rat intestinal injury model assessed as well-preserved glandular architecture at 30 mg/kg administered as bolus dose pretreated for 5 mins followed by 12 hrs reperfusion and subsequent compound addition at 10 mg/kg administered at 1 hr interval during reperfusion period by hematoxylin-eosin/trichrome/NADH-diaphorase staining based histopathological analysis. The format is functional, organism-based.

Data set [10] relates to Mus musculus. The data set is described as follows: Toxicity in mouse assessed as tail bleeding time at 0.50 mmol/kg, po administered 30 mins prior to tail transection measured every 30 secs (reference value: 120.5 +/- 7.9 sec). It counts as organism-based. Particulars: in vivo.
For data set [11], the system named is Rattus norvegicus. The data set can be described thus: Protection against ischemia/reperfusion-induced Wistar rat intestinal injury model assessed as reduction in mitochondrial oxidative damage at 30 mg/kg administered as bolus dose pretreated for 5 mins followed by 12 hrs reperfusion and subsequent compound addition at 10 mg/kg administered at 1 hr interval during reperfusion period by Mitoprobe staining based assay. The format is functional, organism-based.

The subject of data set [12] is Rattus norvegicus. The data set can be described thus: Protection against ischemia/reperfusion-induced Wistar rat intestinal injury model assessed as reduction in lipid peroxidation by measuring lipid peroxide levels at 30 mg/kg administered as bolus dose pretreated for 5 mins followed by 12 hrs reperfusion and subsequent compound addition at 10 mg/kg administered at 1 hr interval during reperfusion period measured at 1.5 to 12 hrs post reperfusion by spectrophotometric method. The format is functional, organism-based.

Data set [13] has as its system Mus musculus. The data set is described as follows: Toxicity in mouse assessed as tail bleeding time at 0.50 mmol/kg, po administered 90 mins prior to tail transection measured every 30 secs (reference value: 119.3 +/- 7.7 sec). It counts as organism-based. Particulars: in vivo.
Data set [14] relates to Mus musculus. The data set can be described thus: Anti-inflammatory activity in ICR mouse assessed as inhibition of xylene induced ear edema pretreated orally for 30 mins followed by xylene challenge measured after 2 hrs. It counts as functional.
For data set [15], the system named is HUVEC. The data set is described as follows: Protection against simulated ischemia/reperfusion injury-induced cell death in HUVEC assessed as increase in cell viability at 30 ug/ml treated for 12 hrs under normoxic condition prior to simulated ischemia for 2 hrs followed by compound washout measured 3 hrs post reperfusion. It counts as functional, cell-based. Particulars: Homo sapiens.

In data set [16] the test system is Mus musculus. The data set can be described thus: Toxicity in mouse assessed as tail bleeding time at 0.50 mmol/kg, po administered 60 mins prior to tail transection measured every 30 secs (reference value: 120.4 +/- 7.9 sec). The format is organism-based. The following applies: in vivo.
In data set [17] the test system is HUVEC. The data set can be described thus: Protection against simulated ischemia and reperfusion injury induced mitochondrial oxidative damage in HUVEC assessed as reduction in cytochrome c release at 30 ug/ml treated for 12 hrs under normoxic condition prior to simulated ischemia for 2 hrs followed by compound washout measured 3 hrs post reperfusion by MitoProbe based immuno-fluorescence assay (reference value: 71.2 +/- 4.5%). It counts as functional, Homo sapiens. More on the design: scale not given: the % may be the effect or the level left.

Data set [18] relates to Mus musculus. The data set can be described thus: Anti-inflammatory activity in xylene induced ICR mouse ear edema model assessed as edema weight at 0.10 mmol/kg, po pretreated 30 mins followed by xylene challenge measured after 2 hrs (reference value: 4.07 +/- 0.51 mg). The format is functional.
In data set [19] the test system is Mus musculus. The data set is described as follows: Anti-inflammatory activity in xylene induced ICR mouse ear edema model assessed as edema weight at 20 mg/kg, po pretreated 30 mins followed by xylene challenge measured after 2 hrs (reference value: 4.07 +/- 0.51 mg). It counts as functional.
Data set [20] relates to Mus musculus. The data set is described as follows: Anti-inflammatory activity in ICR mouse assessed as inhibition of xylene induced ear edema at 20 mg/kg pretreated orally for 30 mins followed by xylene challenge measured after 2 hrs relative to control. The format is functional. Particulars: po.

Calls of active or inactive are those of the source. The rule behind the calls is not given here.

The inhibition in vivo is the relative decrease from the control value, in per cent.

For `CC1(C)CC(n2cc(CNC(=O)CC[C@@H](NC(=O)[C@@H]3Cc4c([nH]c5ccccc45)CN3C(=O)[C@@H]3Cc4c([nH]c5ccccc45)CN3)C(=O)NCc3cn(C4CC(C)(C)N([O])C(C)(C)C4)nn3)nn2)CC(C)(C)N1[O]`, the inhibition in vivo at 100 µmol/kg with Mus musculus [1] turned out to be 80.3%. The outcome with HUVEC [2], in the data set with Rattus norvegicus [3], in the data set with Rattus norvegicus [4], with HUVEC [7], in the data set with Rattus norvegicus [9] and in the data set on Rattus norvegicus [11] was Active. In addition, the result in the data set on Rattus norvegicus [12] and with HUVEC [15] was Active. The Activity in the data set on Rattus norvegicus [5] was 19 pg/mL; in the data set with HUVEC [17], 23.1%; in the data set with Mus musculus [18] it was 0.8 mg. Also, the Time with Mus musculus [6] is listed as 117.1 s; in the data set with Mus musculus [10], 116.6 s; in the data set with Mus musculus [13], 118.3 s; in the data set on Mus musculus [16], 119 s. The inhibition entry in the data set on Mus musculus [8] is “Active”. In the data set with Mus musculus [14], the inhibition result is “Dose-dependent effect”.

For `CC1(C)CC(n2cc(CNC(=O)C[C@@H](NC(=O)[C@@H]3Cc4c([nH]c5ccccc45)CN3C(=O)[C@@H]3Cc4c([nH]c5ccccc45)CN3)C(=O)NCc3cn(C4CC(C)(C)N([O])C(C)(C)C4)nn3)nn2)CC(C)(C)N1[O]`, the inhibition in vivo at 100 µmol/kg in the data set on Mus musculus [1] worked out at 76.7%. Besides, the outcome in the data set with HUVEC [2], in the data set with Rattus norvegicus [3], with HUVEC [7], in the data set with Rattus norvegicus [9], in the data set on Rattus norvegicus [12] and in the data set on HUVEC [15] was Active. Moreover, the values for the Activity with Rattus norvegicus [5], in the data set on HUVEC [17] and with Mus musculus [18] were 21.7 pg/mL, 29.8% and 0.95 mg, respectively. The Time with Mus musculus [6] is given as 118.2 s; in the data set on Mus musculus [10] it was 116.3 s; in the data set on Mus musculus [13] it was 120.5 s; with Mus musculus [16], 119.3 s. Besides, the inhibition entry in the data set on Mus musculus [8] was “Active”. Further, in the data set with Mus musculus [14], the inhibition entry was “Dose-dependent effect”.

With `CC(=O)Oc1ccccc1C(=O)O` [ASPIRIN], in the data set on Mus musculus [19], the Activity was 2.15 mg. The inhibition in vivo at 20 mg/kg in the data set on Mus musculus [20] was determined as 47.1%.

The values above are taken from ChEMBL document CHEMBL4028817, “Indole-TEMPO conjugates alleviate ischemia-reperfusion injury via attenuation of oxidative stress and preservation of mitochondrial function” (Bioorg Med Chem, 2017).
